Test results: publication PMC2691174 (Cancer, 2009)
Where two headings read alike, the source gives them in different places.

What was measured:
[1] = for tmax Mean(Range): stratum A (no EIAEDs, N=14), imatinib 400 mg/day
[2] = Plasma pharmacokinetics of hydroxyurea; conditions: for AUC0−12 / 0−12 Mean(Range) / Cl/F Mean(Range) / Cmax/D Mean(Range) / t1/2 Mean(Range) / tmax Mean(Range): hydroxyurea 500 mg twice-a-day
recurrent GBM patients = conditions: single agent; cited from earlier work
[3] = tested on: patients with newly diagnosed glioblastoma (GBM); conditions: radiotherapy plus temozolomide; cited from earlier work
[4] = Plasma pharmacokinetics of vatalanib; format: in vivo, human; conditions: for Tmax: human, plasma, oral, tmax Mean(Range)
PDGFRβ = conditions: cited from earlier work
[5] = tested on: recurrent malignant glioma patients; test: Phase I dose escalation: MTD, DLT and toxicity; conditions: all patients, with imatinib and hydroxyurea
[6] = stratum A (no EIAEDs, N=14), day 8 of cycle 1
[7] = stratum A (no EIAEDs, N=14), day 35 of cycle 1
[8] = stratum B (on EIAEDs, N=6), day 8 of cycle 1
[9] = stratum B (on EIAEDs, N=6), day 35 of cycle 1
[10] = stratum B (on EIAEDs, N=8), day 7 (vatalanib alone, steady state)
[11] = stratum B (on EIAEDs, N=8), day 35 (with imatinib and hydroxyurea)
[12] = stratum A (no EIAEDs, N=15), day 7 (vatalanib alone, steady state)
[13] = stratum A (no EIAEDs, N=15), day 35 (with imatinib and hydroxyurea)

## Cc1ccc(NC(=O)c2ccc(CN3CCNCC3)cc2)cc1Nc1nccc(-c2cccnc2)n1 [CGP74588]
[1]; day 8 of cycle 1
  tmax Mean(Range): 3.43(2.00−6.00) h
[1]; day 35 of cycle 1
  tmax Mean(Range): 3.57(1.00−8.00) h

## NC(=O)NO [Hydroxyurea]
[2]; in vivo
  effect of EIAEDs or time on hydroxyurea pharmacokinetics: no relevant effect
[2]; [6]
  AUC0−12 / 0−12 Mean(Range): 50.4(9.50−91.1) ng/mL*h/mg
  Cl/F Mean(Range): 15.2(5.50−52.5) L/h
  Cmax/D Mean(Range): 18.5(6.80−29.6) ng/mL/mg
  t1/2 Mean(Range): 4.84(1.60−12.5) h
  tmax Mean(Range): 1.29(0.50−2.00) h
[2]; [7]
  AUC0−12 / 0−12 Mean(Range): 41.7(13.0−84.5) ng/mL*h/mg
  Cl/F Mean(Range): 15.4(5.90−38.4) L/h
  Cmax/D Mean(Range): 19.4(5.60−32.6) ng/mL/mg
  t1/2 Mean(Range): 3.29(1.40−6.80) h
  tmax Mean(Range): 1.30(0.50−4.00) h
[2]; [8]
  AUC0−12 / 0−12 Mean(Range): 37.38(18.1−60.4) ng/mL*h/mg
  Cl/F Mean(Range): 16.4(8.3−27.6) L/h
  Cmax/D Mean(Range): 16.5(7.60−35.0) ng/mL/mg
  t1/2 Mean(Range): 3.5(2.70−5.40) h
  tmax Mean(Range): 1.80(0.50−4.00) h
[2]; [9]
  AUC0−12 / 0−12 Mean(Range): 41.4(17.0−70.1) ng/mL*h/mg
  Cl/F Mean(Range): 15.4(7.10−29.4) L/h
  Cmax/D Mean(Range): 19.0(7.80−31.4) ng/mL/mg
  t1/2 Mean(Range): 7.12(2.50−21.5) h
  tmax Mean(Range): 0.90(0.50−1.50) h

## Cc1ccc(NC(=O)c2ccc(CN3CCN(C)CC3)cc2)cc1Nc1nccc(-c2cccnc2)n1 [Imatinib]
[1]; fully apparent at day 35, more pronounced in patients taking EIAEDs
  effect of hydroxyurea on imatinib pharmacokinetics: increase in Cmax/D and decreases in CL/F and V/F

## COc1cc2c(Oc3ccc4[nH]c(C)cc4c3F)ncnc2cc1OCCCN1CCCC1 [cedarinib]
Recurrent GBM patients
  median PFS: 16 weeks
  radiographic response rate: 50%

## Cn1nnc2c(C(N)=O)ncn2c1=O [temozolomide]
[3]
  median progression-free survival (PFS): 6.9 months

## Clc1ccc(Nc2nnc(Cc3ccncc3)c3ccccc23)cc1 [vatalanib]
[4]; 500 to 1250 mg twice daily
  effect of vatalanib dose on vatalanib pharmacokinetic parameters: no significant effect
[4]; day 7
  decrease of vatalanib Cmax/D by use of EIAEDs: approximately 3 fold
  effect of EIAEDs on vatalanib plasma t1/2: not significantly affecting
  increase of vatalanib CL/F by use of EIAEDs: approximately 3 fold
  increase of vatalanib V/F by use of EIAEDs: more than 3 fold
[4]; [10]
  Tmax: 1.79 h
  AUC0−12 / 0−12 Mean(Range): 4.51(1.31−12.1) ng/mL*h/mg
  Cl/F Mean(Range): 377(82.3−765) L/h
  Cmax/D Mean(Range): 1.15(0.40−2.46) ng/mL/mg
[4]; [11]
  Tmax: 2.13 h
  AUC0−12 / 0−12 Mean(Range): 6.75(0.73−17.7) ng/mL*h/mg
  Cl/F Mean(Range): 368(56.5−1371) L/h
  Cmax/D Mean(Range): 1.91(0.16−6.52) ng/mL/mg
[4]; [12]
  AUC0−12 / 0−12 Mean(Range): 11.1(2.23−16.1) ng/mL*h/mg
  Cl/F Mean(Range): 122(62.0−448) L/h
  Cmax/D Mean(Range): 3.12(0.72−5.03) ng/mL/mg
[4]; [13]
  AUC0−12 / 0−12 Mean(Range): 10.4(3.28−25.5) ng/mL*h/mg
  Cl/F Mean(Range): 137(39.3−305) L/h
  Cmax/D Mean(Range): 2.82(0.82−7.38) ng/mL/mg
PDGFRβ
  PDGFRβ IC50 relative to that of imatinib: approximately twice
[5]; irrespective of EIAEDs
  recommended vatalanib dose: 1000 mg twice-a-day
[5]; continuous daily schedule
  MTD of vatalanib: 1000 mg twice-a-day
